One data set deals with T1, VIM-2 (Pseudomonas aeruginosa, UniProt Q9K2N0).
T1 construct: made in house; host or cells: E. coli BL21(DE3) pLys, plasmid pET-24a(+)-blaVIM-2-S21
Put plainly: BTZ inhibition kinetics of nitrocefin hydrolysis by VIM-2. Type of data set: biochemical, P. aeruginosa. The note with it: for k−2: rate constant for breakdown of E*I; for k2: rate constant for formation of E*I. From the text:
(§1) Analysis of BTZ inhibition kinetics. Models involving one, or two-step slow binding were considered to analyze BTZ inhibition of NFC hydrolysis by VIM-2 and VIM-24 (Scheme 1).
(§2) Here E represents the free enzyme, and I the free inhibitor, EI is the final enzyme-inhibitor complex for a single step slow binding mechanism, and E*I is the enzyme-inhibitor complex formed after conformational changes in a two-step slow binding mechanism. Therefore, the dissociation constant for the EI complex (Ki), also called the inhibitor constant, is defined as Ki=k−1/k1; the dissociation constant for the E*I complex (Ki′) is defined as Ki′=k−2/k2, and the overall dissociation constant for the two-step mechanism (Ki*) is defined as Ki*=Ki/(1+([…])).
(§3) The Ki for each inhibitor was determined by direct competition assays under steady-state conditions. The initial velocity was measured in the presence of a constant concentration of enzyme (3 nM for VIM-2 and 4 nM for VIM-24) with increasing concentrations of inhibitor (5-60 μM) against a fixed concentration (5 x KM) of the indicator substrate, NCF, as previously described (42-44). The reactions were started by addition of VIM-2 or VIM-24 to substrate or to mixtures of substrate and inhibitor. Data were linearized by plotting inverse initial steady-state velocities (1/v0) against inhibitor concentration (I). Ki (observed) was determined by dividing the value for the y intercept by the slope of the line. Ki determinations were corrected to account for the affinity of NCF for the β-lactamase according to equation 3.
(§4) Measurements of association rate constants for inhibitor binding were carried out at 25° C. in 10 mM HEPES at pH 7.5 supplemented with 200 mM NaCl, 50 μM […] and 50 μg/ml BSA, in the presence of several concentrations of each compound. Reactions were then initiated by the addition of β-lactamase (3 nM VIM-2 or 4 nM VIM-24) to a mixture of 50 μM NCF and each BTZ without pre-incubation. Inhibitor association rate constants were estimated from linear extrapolation of the observed rate constant for inhibition (kobs), which was obtained by fitting progress curves of NFC hydrolysis to Eq. 4:
(§5) As previously described, the linear dependence of kobs vs. [I] at limiting I concentration approximates second-order rate constant k2/Ki. The observed second-order rate constant also includes an adjustment for competition between inhibitor and substrate binding (Eq. 5).
(§6) Also, vs calculated from the progress curves of NCF hydrolysis for each concentration of inhibitor were used to determine Ki*, according to the relationship shown in equation 6 (5). The value reported is the mean of three velocities±SD.
(§7) To further test the time-dependent inhibition mechanism of inhibitor binding, assays using dilutions of pre-formed complexes were performed. For these experiments, 1 μM of enzyme was incubated with varying concentrations of the inhibitor which allowed for complete inactivation of the enzyme during the 5 min incubation at 25° C. The reactions were then diluted 2,000-fold in 10 mM HEPES at pH 7.5 supplemented with 200 mM NaCl, 50 μM […] and 50 μg/ml BSA, which contained 50 μM NCF. Reactivation of the enzyme based on NCF hydrolysis was monitored over time. Control reaction with the free enzyme was performed in the same fashion.

The target in data set [1] is T2, VIM-24 (Escherichia coli, UniProt Q5U7L7, R205L).
T2 construct: which corresponds to cleavage after residues 20 (plus an additional Met residue on the N-terminus); made in house; host or cells: E. coli BL21(DE3) pLys, plasmid pET-24a(+)-blaVIM-24-S21
Put plainly: BTZ inhibition kinetics of nitrocefin hydrolysis by VIM-24. The data set is classed as biochemical. The note with it: for k2: rate constant for formation of E*I.
Source text: as §1, §2, §3, §4, §5, §6, §7

In data set [2] the test system is E. coli DH10B pBCSK(−) producing R228P variant. Put plainly: MIC by agar dilution, E. coli DH10B producing VIM-2 R228P. Type of data set: cell-based. The note with it: Escherichia coli. As for the experimental part:
(§8) E. coli DH10B (Invitrogen, Carlsbad, Calif.) was used as a host strain for pBCSK (−) blaVIM-2, and to obtain a mutant library at position 228 by site-saturation mutagenesis, using the QuickChange XL Site-directed Mutagenesis Kit (Stratagene). Briefly, primers that capture all 19 variants at MBL position 228 were designed and PCR mutagenic reactions were conducted using pBCSK (−) blaVIM-2 as a template, and transformed into E. coli DH10B. Single colonies were selected for plasmid purification, and successful mutagenesis was verified by complete DNA sequencing.
(§9) The effect of Zn^2+ availability was also tested by agar dilution using MH supplemented with 250 μM ZnSO4 or 5 μM EDTA. Reported values are the mode of at least 3 biological replicates.
For orientation: Agar dilution tests growth on a series of plates holding different concentrations.

For data set [3], the system named is E. coli DH10B pBCSK(−) producing R228K variant. Put plainly: MIC by agar dilution, E. coli DH10B producing VIM-2 R228K. The data set is classed as cell-based. The note with it: Escherichia coli. How it is done:
as §8, §9

Data set [4] relates to VIM-2 producing P. aeruginosa. Put plainly: Imipenem MIC of clinical isolate, VIM-2 P. aeruginosa. The data set is classed as cell-based.
The test system of data set [5] is E. coli DH10B pBCSK(−) producing R228Y variant. Put plainly: MIC by agar dilution, E. coli DH10B producing VIM-2 R228Y. Type of data set: cell-based. The note with it: Escherichia coli. How it is done:
as §8, §9

Data set [6] deals with VIM-24 producing K. pneumoniae. Put plainly: Imipenem MIC of clinical isolate, VIM-24 K. pneumoniae. Type of data set: cell-based. The note with it: Klebsiella pneumoniae.
Data set [7] has as its system E. coli DH10B pBCSK(−) producing VIM-24 (R228L). Put plainly: MIC by agar dilution, E. coli DH10B producing VIM-24. The note with it: Escherichia coli, read-out: MIC. Type of data set: cell-based. How it is done:
as §8, §9

The subject of another data set is E. coli pBC SK(−). Put plainly: MIC by agar dilution, E. coli DH10B host with empty phagemid. The note with it: Escherichia coli. The data set is classed as cell-based. How it is done: as §8, §9
Data set [8] deals with E. coli DH10B pBCSK(−) producing R228M variant. Put plainly: MIC by agar dilution, E. coli DH10B producing VIM-2 R228M. The data set is classed as cell-based. The note with it: Escherichia coli. How it is done: as §8, §9
Data set [9] concerns E. coli DH10B pBCSK(−) producing VIM-2 (228R). Put plainly: MIC by agar dilution, E. coli DH10B producing VIM-2. The data set is classed as cell-based. The note with it: Escherichia coli, read-out: MIC.
Source text: A forward primer containing the SacI restriction site and a reverse primer with the BamHI restriction site were used to amplify blaVIM-2 including the pET24a(+) ribosomal binding site, using plasmid pET-24a(+)-blaVIM-2 as template. The product was then subcloned into phagemid pBCSK (−) (Agilent (Santa Clara, Calif.)) using the above restriction sites, and thus placing the blaVIM-2 open reading frame under control of the lac promoter, to yield phagemid pBCSK (−) blaVIM-2.
as §8, §9

For data set [10], the system named is E. coli DH10B pBCSK(−) producing R228Q variant. Put plainly: MIC by agar dilution, E. coli DH10B producing VIM-2 R228Q. The data set is classed as cell-based. The note with it: Escherichia coli. How it is done:
as §8, §9

The target in data set [11] is T2, VIM-24. Put plainly: Steady-state kinetic parameters of substrate hydrolysis by VIM-24. The data set is classed as biochemical. The note with it: pH 7.5, 25° C., average ± SD, triplicate. From the text: (§10) Steady-state reactions were followed using an Agilent (Santa Clara, Calif.) 8453 Diode Array spectrophotometer as previously described. […] For ceftazidime and cefepime, a 0.2-cm path length quartz cuvette was used. A nonlinear leastsquares fit of the data (Henri Michaelis-Menten equation) using Enzfitter (Biosoft Corporation, Ferguson, Mo.) was employed to obtain the steady-state kinetic parameters Vmax and KM according to equation 1.
(§11) In this equation the observed first-order rate constant k=kcat/KM*[E].

Data set [12] deals with CC(=O)OCC1=C(C(=O)O)N2C(=O)[C@@H](NC(=O)Cc3cccs3)[C@H]2SC1. Put plainly: Steady-state kinetic parameters of substrate hydrolysis by VIM-2. Type of data set: biochemical, P. aeruginosa. The note with it: other: VIM-2, pH 7.5, 25° C., average ± SD, triplicate.
Source text: as §10, §11

The subject of data set [13] is C[C@@H](O)[C@H]1C(=O)N2C(C(=O)O)=C(SCCN=CN)C[C@H]12. The description is as above. The data set is classed as biochemical, P. aeruginosa. The note with it: other: VIM-2, pH 7.5, 25° C., average ± SD, triplicate.
Source text: as §10, §11

For data set [14], the system named is O=C(Cc1cccs1)N[C@@H]1C(=O)N2C(C(=O)O)=C(/C=C/c3ccc([N+](=O)[O-])cc3[N+](=O)[O-])CS[C@H]12. The data set is described as above. Type of data set: biochemical, P. aeruginosa. The note with it: other: VIM-2, pH 7.5, 25° C., average ± SD, triplicate.
Source text: as §10, §11

Setting [15] is: initial complex EI, NCF as reporter substrate.
[16] abbreviates: overall dissociation constant of two-step mechanism (E*I).
Setting [17] is: MHA supplemented with 5 μM EDTA.
Setting [18] is: MHA supplemented with 250 μM Zn2+.

Converted amounts (≈) assume the structure as drawn. Where two headings read alike, the source gives them in different places. Some results are limits rather than exact numbers.

A word on the Ki: it is a dissociation constant, usually derived from enzyme kinetics or from competition with a known ligand. As for `CC1(C)SC2CSC(CS)N2C1C(=O)O` [D-VC26], the Ki worked out at 14 ± 1 µM on VIM-2 (setting [15]) and 0.1 ± 0.03 µM at VIM-2 (setting [16]). Also, the “k−2” value is reported as 0.0006 ± 4 × 10^−4 s^−1 at VIM-2 and 0.00007 ± 1 × 10^−5 s^−1 at VIM-24 [1] (rate constant for breakdown of E*I). Moreover, the k2 on VIM-2 was 0.09 ± 4 × 10^−3 s^−1; at VIM-24 [1] it was 0.01 ± 3 × 10^−3 s−1.

As for `C[C@@H](O)[C@H]1C(=O)N2C(C(=O)O)=C(SCCN=CN)C[C@H]12` [Imipenem], the MIC in data set [2] (MHA) was 0.5 µg/mL (≈ 1.67 µM); in data set [2] (setting [17]) it was not above 0.125 µg/mL; in data set [2] (setting [18]), 0.25 µg/mL (≈ 0.835 µM); in [3] (MHA) it was 0.25 µg/mL (≈ 0.835 µM); in data set [3] (setting [17]), 0.25 µg/mL (≈ 0.835 µM); in [3] (setting [18]), 0.25 µg/mL (≈ 0.835 µM). The MIC in data set [4] (Pseudomonas aeruginosa) came to 32 µg/mL; in data set [4] (VIM-2 harboring P. aeruginosa clinical isolate), 32 µg/mL; in data set [5] (MHA), 1 µg/mL (≈ 3.34 µM); in [5] (setting [17]), 1 µg/mL (≈ 3.34 µM); in [5] (setting [18]) it was 1 µg/mL (≈ 3.34 µM); in [6] (VIM-24 producing K. pneumoniae) it was 2 µg/mL. In addition, the MIC is 1 µg/mL in data set [6] (VIM-24 producing K. pneumoniae clinical isolate); 0.5 µg/mL (≈ 1.67 µM) in data set [7] (setting [17]); 1 µg/mL (≈ 3.34 µM) in data set [7] (setting [18]); 0.5 µg/mL (≈ 1.67 µM) in data set [7] (MHA); 0.25 µg/mL (≈ 0.835 µM) with E. coli pBC SK(−) (MHA); not above 0.125 µg/mL against E. coli pBC SK(−) (setting [17]). In addition, the MIC in the data set on E. coli pBC SK(−) (setting [18]) was 0.25 µg/mL (≈ 0.835 µM); in [8] (MHA), 2 µg/mL (≈ 6.68 µM); in data set [8] (setting [17]) it was 1 µg/mL (≈ 3.34 µM); in data set [8] (setting [18]), 4 µg/mL (≈ 13.4 µM); in data set [9] (setting [17]), 0.5 µg/mL (≈ 1.67 µM); in data set [9] (setting [18]) it was 1 µg/mL (≈ 3.34 µM). Moreover, the MIC in data set [9] (MHA) was 0.5 µg/mL (≈ 1.67 µM); in data set [10] (MHA), 4 µg/mL (≈ 13.4 µM); in data set [10] (setting [17]), 4 µg/mL (≈ 13.4 µM); in [10] (setting [18]), more than 4 µg/mL.

With `CC1(C)SC2CSC(CS)N2C1C(=O)O` [L-VC26], the Ki on VIM-2 (setting [15]) came to 3.8 ± 0.2 µM; at VIM-2 (setting [16]) it was 0.25 ± 0.01 µM. Further, the “k−2” value on VIM-2 is reported as 0.001 ± 1 × 10^−3 s^−1. The k2 is on record as 0.02 ± 1 × 10^−3 s^−1 at VIM-2 and 0.04 ± 2 × 10^−3 s−1 on VIM-24 [1].

As usually defined, the Km is the substrate concentration at which the rate is half of its maximum. For the molecule `O=C(Cc1cccs1)N[C@@H]1C(=O)N2C(C(=O)O)=C(/C=C/c3ccc([N+](=O)[O-])cc3[N+](=O)[O-])CS[C@H]12` [Nitrocefin], on VIM-24 [11], the Kcat was 171 ± 4 s⁻¹ and the Km was 11 ± 1 µM.

What is called kcat is the number of substrate molecules converted per active site and unit of time at saturation. In general, kcat/Km refers to the second-order rate constant that governs catalysis at low substrate concentration. For VIM-2 (Pseudomonas aeruginosa), in data set [12], the Km is 17 ± 2 µM, the kcat came to 168 ± 8 s⁻¹ and the kcat/Km turned out to be 9.8e+06 M⁻¹ s⁻¹. Also, in [13], the Km is 12 ± 1 µM, the kcat stood at 45 ± 1 s⁻¹ and the kcat/Km was found to be 3.6e+06 M⁻¹ s⁻¹. Further, in data set [14], the Km was determined as 13 ± 1 µM, the kcat was 430 ± 20 s⁻¹ and the kcat/Km came out at 3.3e+07 M⁻¹ s⁻¹.

The record behind these values is US10251869B2, “Compositions and methods of inhibiting metallo-β-lactamases” (priority 2014, dated 2019).
